Measurements reported in patent US9931347B2, “Pharmaceutical compound” (IOmet Pharma Ltd., priority 2013, dated 2018).

Columns and labels:
[1] = molecular target: T1, TDO (A172 human glioblastoma cells) (Homo sapiens, UniProt P48775); experiment: A172 Kynurenine cell based assay; conditions: 500 μM L-tryptophan, 48 hours, kynurenine by Erhlich's reagent
T1 construct: This assay utilised cancer cells which expressed either TDO or IDO; endogenous in cells; host or cells: A172 human glioblastoma cells
T1 sequence (P48775 whole entry): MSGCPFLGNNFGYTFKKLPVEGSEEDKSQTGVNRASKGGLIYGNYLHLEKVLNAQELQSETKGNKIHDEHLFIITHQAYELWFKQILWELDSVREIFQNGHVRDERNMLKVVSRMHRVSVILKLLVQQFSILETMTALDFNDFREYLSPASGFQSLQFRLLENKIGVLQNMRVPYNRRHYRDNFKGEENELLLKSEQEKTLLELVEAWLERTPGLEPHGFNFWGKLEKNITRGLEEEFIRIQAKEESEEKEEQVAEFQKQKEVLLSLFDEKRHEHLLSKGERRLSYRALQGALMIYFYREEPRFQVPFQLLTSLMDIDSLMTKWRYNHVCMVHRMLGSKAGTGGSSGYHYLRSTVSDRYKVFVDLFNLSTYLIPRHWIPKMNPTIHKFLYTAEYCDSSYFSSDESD
Protocol: (§1) Exemplary compounds of the invention were prepared, and tested to determine their effect as TDO and/or IDO inhibitors. Two different assays were employed: 1. a cell-based assay for detecting the effect of test compounds on kynurenine production in two different cancer cell types. This assay utilised cancer cells which expressed either TDO or IDO and as such was used as a means of testing compound activity at these two enzymes in a cell-based context. 2. a TDO and IDO biochemical coupled assay which utilised recombinantly produced and purified TDO and IDO enzymes in combination with the enzyme formamidase. This coupled enzyme system allowed conversion of N-formylkynurenine produced by TDO or IDO activity to kynurenine which was then quantified by fluorescence following addition of Erhlich's Reagent The protocols for these are set out below.
(§2) A172 (human glioblastoma) and SKOV3 (human ovarian adenocarcinoma) cells were seeded in a 96 well plate at 30,000 or 40,000 cells per well respectively in phenol red-free RPMI supplemented with 10% FCS, 2 mM L-glutamine and 500 μM L-tryptophan. IDO expression was induced in the SKOV3 cells by the addition of 500 ng/ml IFN-γ. Cells were incubated at 37° C. with or without the addition of test compound. After 48 hours, the cells were removed by centrifugation and Erhlich's reagent was added to the supernatant. The Erhlich's reagent was incubated for 5 minutes before the absorbance was read at 490 nm.

[2] = molecular target: T2, IDO (SKOV3 human ovarian adenocarcinoma cells, IFN-γ induced) (Homo sapiens, UniProt P14902); experiment: SKOV3 Kynurenine cell based assay; conditions: IDO induced by 500 ng/ml IFN-γ, 500 μM L-tryptophan, 48 hours
T2 construct: IDO expression was induced in the SKOV3 cells by the addition of 500 ng/ml IFN-γ; endogenous in cells; host or cells: SKOV3 human ovarian adenocarcinoma cells, induced with IFN-γ
T2 sequence (P14902 whole entry): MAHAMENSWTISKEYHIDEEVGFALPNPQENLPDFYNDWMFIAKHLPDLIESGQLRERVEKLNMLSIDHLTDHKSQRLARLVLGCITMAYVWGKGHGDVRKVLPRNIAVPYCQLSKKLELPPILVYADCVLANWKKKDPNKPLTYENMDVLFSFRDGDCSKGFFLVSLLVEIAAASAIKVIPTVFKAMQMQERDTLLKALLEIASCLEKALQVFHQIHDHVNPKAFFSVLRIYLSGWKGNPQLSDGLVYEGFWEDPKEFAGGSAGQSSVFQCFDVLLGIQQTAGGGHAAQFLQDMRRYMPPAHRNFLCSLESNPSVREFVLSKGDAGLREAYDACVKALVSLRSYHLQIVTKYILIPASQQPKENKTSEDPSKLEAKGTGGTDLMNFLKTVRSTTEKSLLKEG
Protocol: as §1
as §2, with “supernatant.” for “supernatant. The Erhlich's reagent was incubated for 5 minutes before the absorbance was read at 490 nm.”

Row | Compound | A172 Kynurenine cell based assay pIC50 [1] | SKOV3 Kynurenine cell based assay pIC50 [2]
1 | Fc1ccc2c(C3CCN(c4ccncc4)CC3)c[nH]c2c1 [Compound 301] | + (+ = pIC50 4.00-4.99) | + (+ = pIC50 4.00-4.99)
2 | CS(=O)(=O)N1CC=C(c2c[nH]c3cc(F)cc(F)c23)CC1 [Compound 215] | ++ (++ = pIC50 5.00-5.99) | + (+ = pIC50 4.00-4.99)
3 | CN(C)S(=O)(=O)N1CCC(c2c[nH]c3cc(F)ccc23)CC1 [Compound 250] | ++ (++ = pIC50 5.00-5.99) | + (+ = pIC50 4.00-4.99)
4 | COc1cccc(C(=O)N2CCC(c3c[nH]c4cc(F)ccc34)CC2)n1 [Compound 273] | + (+ = pIC50 4.00-4.99) | + (+ = pIC50 4.00-4.99)
5 | CCCC(=O)N1CCC(c2c[nH]c3cc(F)ccc23)CC1 [Compound 270] | ++ (++ = pIC50 5.00-5.99) | + (+ = pIC50 4.00-4.99)
6 | Cc1ccc2c(C3CCN(S(C)(=O)=O)CC3)c[nH]c2c1 [Compound 207] | + (+ = pIC50 4.00-4.99) | + (+ = pIC50 4.00-4.99)
7 | CC(=O)N1CCC(c2c[nH]c3ccc(OCc4ccccc4)cc23)CC1 [Compound 208] | + (+ = pIC50 4.00-4.99) | + (+ = pIC50 4.00-4.99)
8 | CC(=O)N1CCC(c2c[nH]c3cc(OCc4ccccc4)ccc23)CC1 [Compound 221] | + (+ = pIC50 4.00-4.99) | + (+ = pIC50 4.00-4.99)
9 | CC(=O)N1CC=C(c2c[nH]c3cc(C(F)(F)F)ccc23)CC1 [Compound 223] | + (+ = pIC50 4.00-4.99) | + (+ = pIC50 4.00-4.99)
10 | O=S(=O)(Cc1ccccc1)N1CCC(c2c[nH]c3cc(F)ccc23)CC1 [Compound 293] | ++ (++ = pIC50 5.00-5.99) | + (+ = pIC50 4.00-4.99)
11 | O=C(C1CC(=O)N(C2CCCC2)C1)N1CCC(c2c[nH]c3cc(F)ccc23)CC1 (stereo not drawn) [Compound 276] | + (+ = pIC50 4.00-4.99) | + (+ = pIC50 4.00-4.99)
12 | CC(=O)N1CC=C(c2c[nH]c3cc(Cl)c(F)cc23)CC1 [Compound 228] | ++ (++ = pIC50 5.00-5.99) | + (+ = pIC50 4.00-4.99)
13 | CC(=O)N1CCC(c2c[nH]c3ccc(C#N)cc23)CC1 [Compound 233] | + (+ = pIC50 4.00-4.99) | + (+ = pIC50 4.00-4.99)
14 | CS(=O)(=O)N1CCC(c2c[nH]c3ccc(C#N)cc23)CC1 [Compound 177] | + (+ = pIC50 4.00-4.99) | + (+ = pIC50 4.00-4.99)
15 | CC(=O)N1CCC(c2c[nH]c3ccc(Cl)cc23)CC1 [Compound 238] | + (+ = pIC50 4.00-4.99) | + (+ = pIC50 4.00-4.99)
16 | CN(C)CCOc1ccc2c(C3=CCN(S(C)(=O)=O)CC3)c[nH]c2c1 [Compound 254] | + (+ = pIC50 4.00-4.99) | + (+ = pIC50 4.00-4.99)
17 | CC(=O)N1CC=C(c2c[nH]c3cc(OCCN(C)C)ccc23)CC1 [Compound 255] | ++ (++ = pIC50 5.00-5.99) | + (+ = pIC50 4.00-4.99)
18 | CS(=O)(=O)N1CCC(c2c[nH]c3ccccc23)C(O)C1 (stereo not drawn) [Compound 187] | + (+ = pIC50 4.00-4.99) | +− (+− = pIC50 <4.00)
19 | O=S(=O)(C1CCCC1)N1CCC(c2c[nH]c3cc(F)ccc23)CC1 [Compound 291] | ++ (++ = pIC50 5.00-5.99) | + (+ = pIC50 4.00-4.99)
20 | CC(=O)N1CCC(c2c[nH]c3ccc(C(F)(F)F)cc23)CC1 [Compound 241] | + (+ = pIC50 4.00-4.99) | + (+ = pIC50 4.00-4.99)
21 | CS(=O)(=O)N1CCC(c2c[nH]c3ccc(Cl)cc23)CC1 [Compound 239] | ++ (++ = pIC50 5.00-5.99) | ++ (++ = pIC50 5.00-5.99)

Row | Compound | A172 Kynurenine cell based assay pIC50 [1] | SKOV3 Kynurenine cell based assay pIC50 [2]
22 | O=C(N1CCC(c2c[nH]c3cc(F)ccc23)CC1)C1(c2ccccc2)CC1 [Compound 281] | + (+ = pIC50 4.00-4.99) | + (+ = pIC50 4.00-4.99)
23 | CS(=O)(=O)N1CCC(c2c[nH]c3cc(Cl)c(F)cc23)CC1 [Compound 243] | + (+ = pIC50 4.00-4.99) | + (+ = pIC50 4.00-4.99)
24 | O=S(=O)(N1CCC(c2c[nH]c3cc(F)ccc23)CC1)C(F)(F)F [Compound 296] | ++ (++ = pIC50 5.00-5.99) | + (+ = pIC50 4.00-4.99)
25 | CCN(CC)S(=O)(=O)N1CCC(c2c[nH]c3ccccc23)CC1 [Compound 217] | + (+ = pIC50 4.00-4.99) | + (+ = pIC50 4.00-4.99)
26 | CC1(C)CC(c2c[nH]c3cc(F)ccc23)CCN1S(C)(=O)=O (stereo not drawn) [Compound 317] | ++ (++ = pIC50 5.00-5.99) | + (+ = pIC50 4.00-4.99)
27 | CCCn1cc(C(=O)N2CCC(c3c[nH]c4cc(F)ccc34)CC2)c(C)n1 [Compound 280] | ++ (++ = pIC50 5.00-5.99) | + (+ = pIC50 4.00-4.99)
28 | Cn1nc(-c2ccccc2)cc1C(=O)N1CCC(c2c[nH]c3cc(F)ccc23)CC1 [Compound 279] | + (+ = pIC50 4.00-4.99) | + (+ = pIC50 4.00-4.99)
29 | CS(=O)(=O)N1CCC(c2c[nH]c3cc(F)c(Cl)cc23)CC1 [Compound 253] | + (+ = pIC50 4.00-4.99) | + (+ = pIC50 4.00-4.99)
30 | CS(=O)(=O)N1CCC(c2c[nH]c3ccc(C(F)(F)F)cc23)CC1 [Compound 240] | + (+ = pIC50 4.00-4.99) | ++ (++ = pIC50 5.00-5.99)
31 | O=C(CC1CC1)N1CCC(c2c[nH]c3cc(F)ccc23)CC1 [Compound 284] | + (+ = pIC50 4.00-4.99) | + (+ = pIC50 4.00-4.99)
32 | O=C1CCC2CN(c3c[nH]c4ccccc34)CCN12 (stereo not drawn) [Compound 190] | ++ (++ = pIC50 5.00-5.99) | +− (+− = pIC50 <4.00)
33 | CC(=O)N1CCC(c2c[nH]c3cc(F)ccc23)CC1(C)C (stereo not drawn) [Compound 316] | ++ (++ = pIC50 5.00-5.99) | + (+ = pIC50 4.00-4.99)
34 | CC(=O)N1CC=C(c2c[nH]c3c(Cl)cccc23)CC1 [Compound 196] | + (+ = pIC50 4.00-4.99) | + (+ = pIC50 4.00-4.99)
35 | CC(=O)N1CCN(c2c[nH]c3ccccc23)CC1(C)C [Compound 299] | ++ (++ = pIC50 5.00-5.99) | + (+ = pIC50 4.00-4.99)
36 | CC(=O)N1CC=C(c2c[nH]c3ccc(C(F)(F)F)cc23)CC1 [Compound 229] | + (+ = pIC50 4.00-4.99) | + (+ = pIC50 4.00-4.99)
37 | CCCc1cc(C(=O)N2CCC(c3c[nH]c4cc(F)ccc34)CC2)[nH]n1 [Compound 277] | + (+ = pIC50 4.00-4.99) | + (+ = pIC50 4.00-4.99)
38 | CC(=O)N1CCC(c2c[nH]c3cc(F)c(Cl)cc23)CC1 [Compound 252] | + (+ = pIC50 4.00-4.99) | + (+ = pIC50 4.00-4.99)
39 | COCCN1CC(C(=O)N2CCC(c3c[nH]c4cc(F)ccc34)CC2)CC1=O (stereo not drawn) [Compound 283] | + (+ = pIC50 4.00-4.99) | + (+ = pIC50 4.00-4.99)
40 | CS(=O)(=O)N1CC=C(c2c[nH]c3cc(F)c(Cl)cc23)CC1 [Compound 248] | ++ (++ = pIC50 5.00-5.99) | + (+ = pIC50 4.00-4.99)
41 | Fc1ccc2c(C3CCN(c4ccccn4)CC3)c[nH]c2c1 [Compound 193] | ++ (++ = pIC50 5.00-5.99) | ++ (++ = pIC50 5.00-5.99)
42 | CS(=O)(=O)N1CCC(c2c[nH]c3cc(C(F)(F)F)ccc23)CC1 [Compound 234] | + (+ = pIC50 4.00-4.99) | + (+ = pIC50 4.00-4.99)
